Measurements: patent US20150110814A1, “COMBINATION THERAPIES WITH PSMA LIGAND CONJUGATES” (PSMA Development Company, LLC, priority 2013, published 2015)
Square brackets hold non-standard residues; d marks the D form. Peptide text beside a SMILES is read from it. * marks the point of attachment. Dolaproine = CO[C@@H]([C@@H]1CCCN1)[C@@H](C)C(=O)O; Dil = CC[C@H](C)[C@H](NC)[C@@H](CC(=O)O)OC; X1 = C[C@@H](N*)[C@@H](O)c1ccccc1; NMeV = CN[C@H](C(=O)O)C(C)C

Tests used:
LNCaP cells = test: Cell viability assay (CellTiter-Glo, inhibition of proliferation, Bliss synergy); format: cell-based, human; details: for activity when combined with PSMA ADC: LNCaP cells (FIG. 8)
Procedure: (§1) Cells were plated at a density of 1×10^3 cells in 25 μL in 384-well white-colored microplates (Perkin Elmer) and cultured overnight. The next day, cells were treated with 1 or 2 drugs in a total volume of 50 μL. Cultures were incubated at 37° C. for 7 days. Viability was assessed on days 0 and 7 using CellTiter-Glo (Promega) and an Analyst GT luminescence reader at 560 nm emission (Molecular Devices). The percent inhibition of proliferation was calculated as (Vu−Vt)/(Vu−V0)×100, where Vu, Vt and V0 represent the viability values for untreated cells on day 7, treated cells on day 7, and cells prior to treatment on day 0, respectively. […] Values of >100% reflect cytotoxic compounds or combinations, where Vt<V0.
(§2) Drug combinations were tested in 3 to 7 independent repeat cell viability assays unless otherwise indicated Inhibition data were fit to a four-parameter logistic equation using GraphPad Prism. […] Bliss differences were calculated by subtracting the predicted value (Fc) from the experimentally observed inhibition. Mean Bliss differences were calculated for each point in a matrix of drug-drug combinations, converted to percentages, and assessed for statistical significance from the null value of zero using two-sided t-tests with a significance level of 0.05. Statistical evaluations were not performed in cases where the fractional growth inhibition exceeded unity, since such values fall outside the Bliss framework. In addition, Bliss differences of less than 5% were considered to be of limited biological relevance and were excluded from synergy considerations.

C4-2 cells = test: as above; format: cell-based, human; details: for activity when combined with PSMA ADC: C4-2 cells (FIG. 8)
Procedure: as §1, §2

[1] = tested on: PSMA expression on C4-2 cells; test: Flow cytometry of cell-surface PSMA expression; format: cell-based, human; set-up: cell-surface PSMA expression / PSMA expression on treated cells relative to untreated cells: dose or concentration left out as unconfirmed; details: for cell-surface PSMA expression: 7 days post-treatment
Procedure: (§3) For short-term treatments (≦7 days), cells were plated on 24-well plates (BD Falcon) overnight, at a density of 200,000 cells per 500 μL. The next day, wells were exchanged with 500 μL of fresh media that included inhibitor, and incubated at 37° C. until the indicated time point. For the long-term treatments (>7 days), cells were plated on T-25 flasks (BD Falcon) overnight, at a density of 500,000 cells per flask in 5 mL of media. 5 mL of fresh media with or without treatment was exchanged the next day. On weekly splits thereafter, cells were detached with Cell Dissociation solution (Sigma), washed with fresh media, counted using Vi-CELL XR (Beckman Coulter), and split into two T-25 flasks for continued culture with or without inhibitor. Prior to analysis, cells were detached, counted and suspended in PBS (PBS(−), without Ca/Mg, Life Technologies) containing 0.3% bovine serum albumin (BSA, Sigma) and 0.1% sodium azide (VWR). Cells (100,000 in 100 μL) were placed in round-bottom 96-well plates (Falcon) and incubated for 30 minutes at room temperature with 1 μg/mL of anti-PSMA mAb 3.9 conjugated to phycoerythrin (PE). Cells then were washed twice with 200 μL PBS/BSA/azide buffer and read using a FACSCalibur instrument (BD Biosciences). A mouse IgG2b-PE conjugate of irrelevant specificity (Abcam) was included as an isotype control.

[2] = tested on: PSMA expression on LNCaP cells; test: Flow cytometry of cell-surface PSMA expression; format: cell-based, human; details: antiandrogens concentrations above 1 mM, 7 days post-treatment
Procedure: as §3

PSMA in C4-2 cells = test: Western blotting of total PSMA; format: cell-based, human; details: 7 days
Procedure: (§4) Cells (300,000) were incubated overnight in 6-well plates (BD Falcon) in 4 mL of 10% FBS RPMI1640 media prior to addition of inhibitors. Plates were incubated at 37° C. for an additional 7 days, washed once with 5 mL of cold PBS(−) and placed on ice. Cells were lysed with 130 μL of RIPA Lysis Buffer (Santa Cruz Biotechnology) and then centrifuged at 14,000×g for 10 minutes at 4° C. The supernatant was quantitated for protein concentration using a BCA kit (Pierce/Thermo), resolved under reducing conditions using NuPAGE Novex 4-12% Bis-Tris gels (Life Technologies), and transferred to nitrocellulose using the iBlot 7-Minute Blotting System (Life Technologies). Membranes were blocked using Odyssey Blocking Reagent (LI-COR Biosciences), incubated with primary and secondary antibodies, and visualized using an Odyssey infrared imager (LI-COR Biosciences).

PSMA in LNCaP cells = test: Western blotting of total PSMA; format: cell-based, human; details: 7 days, serial dilution of lysates
Procedure: as §4

[3] = tested on: metastatic, castration-resistant prostate cancer (mCRPC); details: subjects with mCRPC; cited from earlier work

In the case of CNC(=O)c1ccc(N2C(=S)N(c3cnc(C#N)c(C(F)(F)F)c3)C(=O)C23CCC3)cc1F [ARN-509], the single-agent antiproliferative effect (LNCaP cells; LNCaP cells, single agent) is reported as “inhibited proliferation”, the “effect on the activity of PSMA ADC” value (C4-2 cells; C4-2 cells) is reported as “enhanced the activity of PSMA ADC” and the single-agent antiproliferative effect (C4-2 cells; C4-2 cells, single agent) is reported as “minimal antiproliferative effects”.
For CNC(=O)c1ccc(N2C(=S)N(c3ccc(C#N)c(C(F)(F)F)c3)C(=O)C2(C)C)cc1F [Enzalutamide, enzalutamide], the “cell-surface PSMA expression” value ([1]; C4-2) was “approximately doubled”, the “cell-surface PSMA expression” value ([1]; C4-2, listed as enzalutamide) was “doubled” and the “time for PSMA expression to return to baseline in the absence of drug” value ([1]; C4-2, after 3 weeks culture in enzalutamide) was ≤ 7 days. The “PSMA expression on treated cells relative to untreated cells” value ([1]; C4-2, after 21 days) was 4 fold, the “exposure time to maximal PSMA expression” value ([1]; FIG. 15, cell line not stated in legend) was 3 to 4 weeks and the single-agent antiproliferative effect (LNCaP cells; LNCaP cells, single agent) was “inhibited proliferation”. For the same compound, the “effect on the activity of PSMA ADC” value (C4-2 cells; C4-2 cells) was “significantly enhanced the activity of PSMA ADC”, the single-agent antiproliferative effect (C4-2 cells; C4-2 cells, single agent) was “minimal antiproliferative effects” and the “cell-surface PSMA expression” value [2] was “approximately doubled”. The “PSMA upregulation (Western)” value (PSMA in C4-2 cells) was “upregulated PSMA to similar extents” and the “magnitude of increase in PSMA (Western, semi-quantitative)” value (PSMA in LNCaP cells) was “approximately 5 fold”.
In the case of CS(=O)(=O)N1CCN(Cc2cc3nc(-c4cccc5[nH]ncc45)nc(N4CCOCC4)c3s2)CC1 [GDC-0941, 2-(1H-indazol-4-yl)-6-(4-methanesulfonyl-piperazin-1-ylmethyl)-4-morpholin-4-yl-t hieno[3,2-d]pyrimidine], the “activity when combined with PSMA ADC” value (LNCaP cells) is reported as “additive to weakly synergistic activity” and the “activity when combined with PSMA ADC” value (C4-2 cells) is reported as “additive to weakly synergistic activity”.
In the case of CO[C@H]1C(=O)[C@]2(C)[C@@H](OC)C[C@H]3OC[C@@]3(OC(C)=O)[C@H]2[C@H](OC(=O)c2ccccc2)[C@]2(O)C[C@H](OC(=O)[C@H](O)[C@@H](NC(=O)OC(C)(C)C)c3ccccc3)C(C)=C1C2(C)C [Jevtana, cabazitaxel], the survival benefit [3] is given as 2.4 month.
In the case of NC1(c2ccc(-c3nc4ccn5c(=O)[nH]nc5c4cc3-c3ccccc3)cc2)CCC1 [MK-2206], the “activity when combined with PSMA ADC” value (LNCaP cells) is reported as “additive to weakly synergistic activity” and the “activity when combined with PSMA ADC” value (C4-2 cells) is reported as “additive to weakly synergistic activity”.
With CC[C@H](C)[C@@H]([C@@H](CC(=O)N1CCC[C@H]1[C@H](OC)[C@@H](C)C(=O)N[C@H](C)[C@@H](O)c1ccccc1)OC)N(C)C(=O)[C@@H](NC(=O)[C@@H](NC)C(C)C)C(C)C [MMAE, monomethylauristatin norephedrine] (H-[NMeV]V[Dil][Dolaproine]-X1) the “activity when paired with enzalutamide or abiraterone” value (LNCaP cells; LNCaP cells) was “additive activity”, the IC50 (LNCaP cells; LNCaP cells, single agent, 7 days) was ~0.5 nM and the “activity when paired with enzalutamide or abiraterone” value (C4-2 cells; C4-2 cells) was “additive to weakly synergistic activity”. The IC50 (C4-2 cells; C4-2 cells, single agent, 7 days) was ~0.5 nM.
For C[C@]12C=CC(=O)C=C1CC[C@@H]1[C@@H]2C(=O)C[C@@]2(C)[C@H]1CC[C@]2(O)C(=O)CO [Prednisone, prednisone], the “activity when combined with PSMA ADC” value (LNCaP cells) was “additive to weakly synergistic activity” and the “activity when combined with PSMA ADC” value (C4-2 cells) was “additive to weakly synergistic activity”.
In the case of CO[C@H]1C[C@@H]2CC[C@@H](C)[C@@](O)(O2)C(=O)C(=O)N2CCCC[C@H]2C(=O)O[C@H]([C@H](C)C[C@@H]2CC[C@@H](O)[C@H](OC)C2)CC(=O)[C@H](C)/C=C(\C)[C@@H](O)[C@@H](OC)C(=O)[C@H](C)C[C@H](C)/C=C/C=C/C=C/1C [Rapamycin, rapamycin], the “increase in PSMA expression” value ([1]; C4-2, low nanomolar concentrations, 7 days) is reported as > 2 fold.
With Cc1ccc(C(=O)N(CCCN)[C@@H](c2oc3cc(Cl)ccc3c(=O)c2Cc2ccccc2)C(C)C)cc1 [SB-743921] the “activity when combined with PSMA ADC” value (LNCaP cells) was “additive to weakly synergistic activity” and the “activity when combined with PSMA ADC” value (C4-2 cells) was “additive to weakly synergistic activity”.
In the case of C[C@]12CC[C@H](O)CC1=CC[C@@H]1[C@@H]2CC[C@]2(C)C(n3cnc4ccccc43)=CC[C@@H]12 [TOK-001, galeterone], the single-agent antiproliferative effect (LNCaP cells; LNCaP cells, single agent) is reported as “inhibited proliferation”, the “effect on the activity of PSMA ADC” value (C4-2 cells; C4-2 cells) is reported as “enhanced the activity of PSMA ADC” and the single-agent antiproliferative effect (C4-2 cells; C4-2 cells, single agent) is reported as “minimal antiproliferative effects”.
